Series [1] concerns CWR22R. The series is described as follows: Inhibition of PARP in human 22Rv1 cells assessed as reduction in auto-PARylation at 10 uM measured after 48 hrs by Western blot analysis. The format is cell-based.
Series [2] relates to PC-3. The series is described as follows: Inhibition of PARP in human PC3 cells assessed as reduction in auto-PARylation at 10 uM measured after 48 hrs by Western blot analysis. It is filed as cell-based.
Series [3] relates to DU-145. Kind of series: Growth inhibition of human DU145 cells after 5 days by SRB assay. The format is functional, cell-based. Particulars: DU-145, 120 h.
Series [4] deals with PC-3. The series is described as follows: Growth inhibition of human PC3 cells after 5 days by SRB assay. It is filed as functional, cell-based. Particulars: PC-3, 120 h.
The subject of series [5] is CWR22R. The series is described as follows: Growth inhibition of human 22Rv1 cells after 5 days by SRB assay. It is filed as functional, cell-based. The conditions noted are these: 22Rv1, 120 h.
Series [6] addresses T1, Epidermal growth factor receptor (Homo sapiens, UniProt P00533). Kind of series: Inhibition of EGFR in human 22Rv1 cells assessed as reduction in EGF-stimulated EGFR phosphorylation preincubated for 2 hrs followed by EGF stimulation and measured after 30 mins by Western blot analysis. The format is cell-based. Particulars: CWR22R.
Series [7] in a line: Selectivity ratio of IC50 for EGFR (unknown origin) transfected in mouse NIH/3T3 cells to IC50 for EGFR in mouse NIH/3T3 cells. The format is cell-based.
Series [8] addresses T1, Epidermal growth factor receptor. The series is described as follows: Inhibition of EGFR in human PC3 cells assessed as reduction in EGF-stimulated AKT phosphorylation at 0.1 to 100 uM preincubated for 2 hrs followed by EGF stimulation and measured after 30 mins by Western blot analysis. It is filed as cell-based. Particulars: PC-3.
Series [9] has as its system DNA. The series is described as follows: Induction of DNA damage in human PC3 cells at 12.5 uM measured after 2 to 24 hrs by alkaline commet assay relative to busulfan. The format is cell-based. The conditions noted are these: PC-3.
The target in series [10] is T1, Epidermal growth factor receptor. The series is described as follows: Inhibition of EGFR in human PC3 cells assessed as reduction in EGF-stimulated ERK phosphorylation at 0.1 to 100 uM preincubated for 2 hrs followed by EGF stimulation and measured after 30 mins by Western blot analysis. The format is cell-based. Particulars: PC-3.
Series [11] relates to CWR22R. Kind of series: Inhibition of PARP in human 22Rv1 cells assessed as reduction in auto-PARylation up to 20 uM measured after 48 hrs by Western blot analysis. The format is cell-based.
The test system of series [12] is DNA. The series is described as follows: Induction of DNA damage in human PC3 cells measured after 2 to 24 hrs by alkaline commet assay. It is filed as cell-based. The conditions noted are these: PC-3.
In series [13] the test system is DNA. The series is described as follows: Induction of DNA damage in human 22Rv1 cells measured after 2 to 24 hrs by alkaline commet assay. The format is cell-based. Particulars: CWR22R.
Series [14] deals with T1, Epidermal growth factor receptor. The series is described as follows: Inhibition of recombinant human N-terminal GST-tagged EGFR (668 to end residues) expressed in baculovirus infected Sf9 insect cells assessed as reduction in […] EGFR phosphorylation […] by TMB peroxidase substrate based assay.

The test system of series [15] is DNA. The series is described as follows: Induction of DNA damage in human PC3 cells assessed as increase in gammaH2AX phosphorylation up to 20 uM measured after 48 hrs by Western blot analysis. Particulars: PC-3. It is filed as cell-based.
The nature of series [16]: Drug uptake in human 22Rv1 cells assessed as drug accumulation in perinuclear region at 10 uM measured after 2 hrs by confocal laser scanning microscopic analysis. The conditions noted are these: cwr22r. It is filed as ADME, cell-based.
The species named for series [17] is Homo sapiens. Kind of series: Selectivity ratio of IC50 for BRCA mutant (unknown origin) expressed in Cricetulus griseus VCA cells to IC50 for BRCA (unknown origin) expressed in Cricetulus griseus VCA cells. It is filed as cell-based.
Series [18] concerns DNA. Kind of series: Induction of DNA damage in human 22Rv1 cells assessed as increase in gammaH2AX phosphorylation up to 20 uM measured after 48 hrs by Western blot analysis. Particulars: CWR22R. It is filed as cell-based.
In series [19] the test system is PC-3. Kind of series: Inhibition of PARP in human PC3 cells assessed as reduction in auto-PARylation up to 20 uM measured after 48 hrs by Western blot analysis. The format is cell-based.
The target in series [20] is T1, Epidermal growth factor receptor. Kind of series: Inhibition of EGFR in human PC3 cells assessed as reduction in EGF-stimulated EGFR phosphorylation at <= 1 uM preincubated for 2 hrs followed by EGF stimulation and measured after 30 mins by Western blot analysis relative to control. The format is cell-based. The conditions noted are these: PC-3.
A short description of series [21]: Induction of 2'-Deoxyguanosine depurination at 0.1 mM measured after 24 hrs by LC-MS analysis. Particulars: 100 µM.
The test system of series [22] is DNA. Kind of series: Induction of DNA damage in human 22Rv1 cells at 12.5 measured after 2 to 24 hrs by alkaline commet assay relative to busulfan. It is filed as cell-based. Particulars: CWR22R.
Series [23] has as its target T1, Epidermal growth factor receptor. Kind of series: Inhibition of EGFR in human 22Rv1 cells assessed as reduction in EGF-stimulated EGFR phosphorylation at <= 1 uM preincubated for 2 hrs followed by EGF stimulation and measured after 30 mins by Western blot analysis relative to control. It is filed as cell-based. Particulars: CWR22R.
A short description of series [24]: Drug uptake in human 22Rv1 cells at 25 uM measured up to 6 hrs by LC-MS/MS analysis. The format is ADME, cell-based. The conditions noted are these: cwr22r.
For series [25], the target named is T1, Epidermal growth factor receptor. The series is described as follows: Inhibition of EGFR in human PC3 cells assessed as reduction in EGF-stimulated EGFR phosphorylation preincubated for 2 hrs followed by EGF stimulation and measured after 30 mins by Western blot analysis. It is filed as cell-based. Particulars: PC-3.

Calls of active or inactive are those of the source. No cut-off for these calls is given here.

Here are results for three compounds from ChEMBL document CHEMBL4602739, “Design and Synthesis of a Trifunctional Molecular System "Programmed" to Block Epidermal Growth Factor Receptor Tyrosine Kinase, Induce High Levels of DNA Damage, and Inhibit the DNA Repair Enzyme (Poly(ADP-ribose) Polymerase) in Prostate Cancer Cells” (J Med Chem, 2020).

T1 sequence (P00533 whole entry): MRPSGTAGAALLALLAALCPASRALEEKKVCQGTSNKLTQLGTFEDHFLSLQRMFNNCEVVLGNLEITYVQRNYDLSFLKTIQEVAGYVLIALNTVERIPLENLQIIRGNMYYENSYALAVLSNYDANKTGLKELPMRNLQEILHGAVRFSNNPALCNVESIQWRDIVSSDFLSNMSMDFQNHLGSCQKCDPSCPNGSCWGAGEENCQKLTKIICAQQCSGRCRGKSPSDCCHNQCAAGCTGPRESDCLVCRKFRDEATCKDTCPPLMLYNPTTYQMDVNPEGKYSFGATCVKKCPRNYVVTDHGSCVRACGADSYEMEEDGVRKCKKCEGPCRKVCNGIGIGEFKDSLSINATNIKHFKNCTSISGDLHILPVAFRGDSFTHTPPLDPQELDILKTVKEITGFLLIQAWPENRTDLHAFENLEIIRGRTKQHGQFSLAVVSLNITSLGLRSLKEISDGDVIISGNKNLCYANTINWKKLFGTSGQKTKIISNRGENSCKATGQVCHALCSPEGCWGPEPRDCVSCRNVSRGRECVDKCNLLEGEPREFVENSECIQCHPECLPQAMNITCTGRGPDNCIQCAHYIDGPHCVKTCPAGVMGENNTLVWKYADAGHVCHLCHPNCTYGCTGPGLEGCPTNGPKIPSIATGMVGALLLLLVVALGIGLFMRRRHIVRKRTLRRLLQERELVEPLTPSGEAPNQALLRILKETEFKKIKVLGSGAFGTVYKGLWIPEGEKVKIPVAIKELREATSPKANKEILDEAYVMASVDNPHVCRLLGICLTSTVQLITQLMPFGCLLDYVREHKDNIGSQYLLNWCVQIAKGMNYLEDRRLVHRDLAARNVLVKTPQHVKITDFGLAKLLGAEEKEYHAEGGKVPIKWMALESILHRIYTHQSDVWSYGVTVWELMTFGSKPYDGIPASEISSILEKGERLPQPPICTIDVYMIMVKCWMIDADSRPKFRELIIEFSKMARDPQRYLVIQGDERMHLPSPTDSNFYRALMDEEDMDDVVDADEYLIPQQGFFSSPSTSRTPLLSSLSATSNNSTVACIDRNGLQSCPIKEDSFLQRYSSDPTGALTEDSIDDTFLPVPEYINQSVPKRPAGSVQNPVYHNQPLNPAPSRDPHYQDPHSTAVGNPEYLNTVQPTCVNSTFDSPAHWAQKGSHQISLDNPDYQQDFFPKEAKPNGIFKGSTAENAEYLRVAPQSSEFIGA

In the case of `O=C(c1cc(Cc2n[nH]c(=O)c3ccccc23)ccc1F)N1CCN(C(=O)C2CC2)CC1` [OLAPARIB], the inhibition entry in series [1] and in series [2] was “Active” each time. Also, the concentration for half-maximal inhibition (IC50) is 17.7 µM in series [3], 20.6 µM in series [4] and 33.8 µM in [5].

On to `CN(CCOS(=O)(=O)CCc1cn(CCCC(=O)N2CCN(C(=O)c3cc(Cc4n[nH]c(=O)c5ccccc45)ccc3F)CC2)nn1)c1ccc2ncnc(Nc3cccc(Br)c3)c2c1`, for which the inhibition entry is “Dose-dependent effect” in [6], 34 to 45% in [20], 34 to 45% in series [23] and “Dose-dependent effect” in series [25]. The Ratio IC50 was 7 in series [7] and 3 to 4 in series [17]. The inhibition result in series [8], in series [10], in [11] and in series [19] was “Active” in each case. For the same compound, the fold change (FC) in [9] and in series [22] was 3 to 6 throughout. Moreover, the Activity result in series [12] and in [13] was “Dose-dependent effect” each time. Besides, the IC50 is 3.2 µM in series [3], 3 µM in series [4], 0.326 µM in series [14] and 1.9 µM in [5]. For the same compound, the result in series [15] and in series [18] was Active. Moreover, the Drug uptake result in series [16] and in series [24] was “Active” throughout. Further, the Drug metabolism result in series [21] is on record as “Metabolite_Detected”.

For the compound `CS(=O)(=O)OCCCCOS(C)(=O)=O` [BUSULFAN], the IC50 came out at 25.8 µM in series [3], 36.2 µM in [4] and 24.3 µM in [5].
